# According to patent publication US20250000847A1, “TREATMENT OF NEURODEGENERATIVE DISEASES WITH HDAC INHIBITORS” (CASE WESTERN RESERVE UNIVERSITY, priority 2021, published 2025):
# Like-named read-outs stand apart in the source and are kept apart here.
# Key:
# [1] = test system: HDAC; details: cell-free assay where stated; read-out: IC50 (pan-HDAC); cited from earlier work
# [2] = test system: HDACs 2, 3, 6, and 10; details: cited from earlier work
# [3] = molecular target: HDAC2 (Homo sapiens, UniProt Q92769); details: cell-free assays where stated; cited from earlier work
# [4] = molecular target: HDAC3 (Homo sapiens, UniProt O15379); details: cell-free where stated; cited from earlier work
# [5] = molecular target: HDAC1 (Homo sapiens, UniProt Q13547); details: cell-free assays where stated; cited from earlier work
# [6] = molecular target: HDAC6 (Homo sapiens, UniProt Q9UBN7); details: cell-free assays; cited from earlier work
# [7] = test system: maize HD1B; details: cell-free assays; cited from earlier work
# [8] = test system: maize HD2; details: cell-free assays; cited from earlier work
# [9] = test system: maize HD1A; details: cell-free assays; cited from earlier work
# [10] = molecular target: class III isoenzyme SIRT I (Homo sapiens, UniProt Q96EB6); details: cited from earlier work
# [11] = test system: HDACs 2, 4, 10, and 11; details: cited from earlier work
# [12] = test system: HDACs 6 and 7; details: cited from earlier work
# [13] = molecular target: HDAC8 (Homo sapiens, UniProt Q9BY41); details: cited from earlier work
# [14] = test system: HDAC4/5/7/9/11, Sirtuin1, and Sirtuin2; details: cited from earlier work
# [15] = test system: acetylated H4 and H3; details: cited from earlier work
# [16] = test system: MHC Class I (H-2Kb) bound to OVA257-264 on reactive astrocytes; test: OVA257-264 peptide antigen cross presentation assay; format: cell-based, mouse; details: for treated cells H-2 kB-OVA positive DRAs: reactive astrocytes without inhibitor more than about 80%
# Experimental: To test whether HDAC inhibitors block the ability of reactive astrocytes to cross present exogenous antigen, cells were plated down in 96-well plates at a density of about 500 cells/mm^2. Cells were then treated with HDAC inhibitors for 1 hr prior to the addition of reactive astrocyte driving factors as the concentrations stated above. Cells were incubated for 24 hrs, after which, media was washed out and replaced with media containing the peptide fragment ovalbumin 257-264 (OVA257-264). Cells were then incubated overnight, and then stained for 2 hrs at 37° C. with APC-conjugated antibody against MHC Class I (H-2Kb) bound to OVA257-264, then visualized. The percent of H-2Kb positive cells as a percent of total live cells was determined (FIG. 3).
# After 24 hours of treatment, these cells were cultured in the presence of the OVA257264 Peptide (GenScript RP10611 or Sigma S7951). After 12 hours, the cells were live-stained for two hours using a conjugated antibody targeted against an OVA257-264 peptide antigen. The cells were then fixed and imaged using the PerkinElmer Operetta CLS High-Content Analysis System.
# [17] = test system: RelA/P65; test: Nuclear RelA/P65 in reactive astrocytes; format: cell-based, mouse
# Experimental: For immunocytochemistry, cells were fixed with ice-cold 4% PFA for 15 minutes at room temperature, washed three times with PBS, blocked and permeabilized with 10% donkey serum and 0.1% Triton X-100 in PBS for 1 hr, and then stained with primary overnight followed by three washes with PBS, and then 1 hr incubation with Alexaflour secondary antibodies and DAPI. Stained cells were imaged using the PerkinElmer Operetta CLS High-Content Analysis System and analyzed using automated scripts in PerkinElmer Columbus Image Analysis software. Primary antibodies used were GBP2 (ProteinTech, 11854-1-AP), vimentin (BioLegend, 919101), RelA/P65 (Cell Signaling Tech, 6956), MBP (Abeam, AB7349).
# [18] = test system: CCL5; test: CCL5 secretion by reactive astrocytes (ELISA); format: cell-based, mouse; details: FIG. 4
# Experimental: Astrocytes were plated and treated exactly as described for the antigen cross presentation assay. However, after 24 hrs of incubation with either reactive astrocyte driving factors alone or with HDAC inhibitor treatment, conditioned media from the cells was collected and assayed for CCL5 using a commercially available colorimetric ELISA kit (RnD Cat #: DY478-05). Data was then fit to a standard four parameter logistic (4PL) curve and presented as pg/mL/cell, normalized to reactive astrocytes plus DMSO vehicle (FIG. 4).
# Media was collected from mouse P2 primary astrocytes that had been cultured for 24 hrs in the presence of cytokines with and without HDAC3 inhibitors and compared to media from astrocytes not treated with cytokines. The concentration of CCL5, a cytokine secreted by reactive astrocytes, was measured in each of the respective media conditions based on the direct adsorption of CCL5 to a pre-coated capture antibody on the ELISA assay plate. The ELISA sandwich assay was performed according to the manufacturer's instructions (DY478-05, R&D Systems). Relative CCL5 concentration were measured based on absorbance measured by a plate reader.
# HDAC3, sequence (O15379 whole entry, species assumed): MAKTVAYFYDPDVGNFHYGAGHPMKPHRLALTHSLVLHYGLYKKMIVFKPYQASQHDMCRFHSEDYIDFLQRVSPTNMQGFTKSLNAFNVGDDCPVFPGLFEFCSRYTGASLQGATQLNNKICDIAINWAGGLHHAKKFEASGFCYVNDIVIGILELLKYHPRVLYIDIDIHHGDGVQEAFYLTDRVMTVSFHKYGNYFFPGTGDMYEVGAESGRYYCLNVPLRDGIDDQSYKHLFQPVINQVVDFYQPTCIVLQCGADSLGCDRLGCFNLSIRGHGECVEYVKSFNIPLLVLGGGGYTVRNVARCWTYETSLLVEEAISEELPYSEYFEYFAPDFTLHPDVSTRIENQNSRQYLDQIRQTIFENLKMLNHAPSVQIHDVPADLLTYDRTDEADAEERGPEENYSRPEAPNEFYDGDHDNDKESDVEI
# HDAC3, sequence (Q9Y618 395-489 partner limits assumed, species assumed): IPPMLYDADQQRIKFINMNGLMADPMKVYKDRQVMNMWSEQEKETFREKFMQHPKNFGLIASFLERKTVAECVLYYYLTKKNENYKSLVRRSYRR
# HDAC1, sequence (Q13547 whole entry, species assumed): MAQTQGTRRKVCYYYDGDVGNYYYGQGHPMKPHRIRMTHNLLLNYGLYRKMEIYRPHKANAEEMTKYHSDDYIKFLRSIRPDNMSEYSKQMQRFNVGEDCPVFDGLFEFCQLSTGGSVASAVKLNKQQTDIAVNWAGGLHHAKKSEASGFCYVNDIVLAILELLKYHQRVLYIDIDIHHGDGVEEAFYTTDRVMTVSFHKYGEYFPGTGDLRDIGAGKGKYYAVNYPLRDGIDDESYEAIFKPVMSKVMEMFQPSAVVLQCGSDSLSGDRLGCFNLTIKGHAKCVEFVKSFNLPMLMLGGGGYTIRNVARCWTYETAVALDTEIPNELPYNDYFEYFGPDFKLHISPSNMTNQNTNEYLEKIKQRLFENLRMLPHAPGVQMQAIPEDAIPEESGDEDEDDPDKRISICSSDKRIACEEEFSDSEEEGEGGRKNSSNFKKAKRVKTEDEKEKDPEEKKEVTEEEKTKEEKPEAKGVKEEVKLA
# HDAC8, sequence (Q9BY41 whole entry, species assumed): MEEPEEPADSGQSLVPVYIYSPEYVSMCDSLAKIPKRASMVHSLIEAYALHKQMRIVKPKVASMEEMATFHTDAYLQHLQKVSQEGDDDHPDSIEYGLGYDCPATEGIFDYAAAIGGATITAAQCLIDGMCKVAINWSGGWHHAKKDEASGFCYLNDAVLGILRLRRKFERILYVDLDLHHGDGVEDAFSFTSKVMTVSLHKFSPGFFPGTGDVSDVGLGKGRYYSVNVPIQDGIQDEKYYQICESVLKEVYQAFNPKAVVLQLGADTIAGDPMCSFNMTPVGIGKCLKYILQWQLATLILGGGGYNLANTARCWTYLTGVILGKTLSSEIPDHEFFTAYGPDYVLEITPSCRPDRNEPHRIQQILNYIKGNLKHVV
# HDAC2, sequence (Q92769 whole entry, species assumed): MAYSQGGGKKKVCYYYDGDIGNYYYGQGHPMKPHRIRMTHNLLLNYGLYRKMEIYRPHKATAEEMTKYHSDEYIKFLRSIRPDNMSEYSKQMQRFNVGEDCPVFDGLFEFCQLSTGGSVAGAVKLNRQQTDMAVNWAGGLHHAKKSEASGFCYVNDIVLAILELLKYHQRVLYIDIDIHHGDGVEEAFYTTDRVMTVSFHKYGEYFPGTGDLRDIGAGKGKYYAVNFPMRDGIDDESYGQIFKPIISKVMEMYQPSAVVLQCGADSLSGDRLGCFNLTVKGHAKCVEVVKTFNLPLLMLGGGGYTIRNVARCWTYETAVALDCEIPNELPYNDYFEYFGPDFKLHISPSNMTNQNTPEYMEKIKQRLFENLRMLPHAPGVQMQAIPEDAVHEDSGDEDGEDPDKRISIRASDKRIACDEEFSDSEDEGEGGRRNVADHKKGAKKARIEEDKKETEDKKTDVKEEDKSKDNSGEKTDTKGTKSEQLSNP
# HDAC6, sequence (Q9UBN7 whole entry, species assumed): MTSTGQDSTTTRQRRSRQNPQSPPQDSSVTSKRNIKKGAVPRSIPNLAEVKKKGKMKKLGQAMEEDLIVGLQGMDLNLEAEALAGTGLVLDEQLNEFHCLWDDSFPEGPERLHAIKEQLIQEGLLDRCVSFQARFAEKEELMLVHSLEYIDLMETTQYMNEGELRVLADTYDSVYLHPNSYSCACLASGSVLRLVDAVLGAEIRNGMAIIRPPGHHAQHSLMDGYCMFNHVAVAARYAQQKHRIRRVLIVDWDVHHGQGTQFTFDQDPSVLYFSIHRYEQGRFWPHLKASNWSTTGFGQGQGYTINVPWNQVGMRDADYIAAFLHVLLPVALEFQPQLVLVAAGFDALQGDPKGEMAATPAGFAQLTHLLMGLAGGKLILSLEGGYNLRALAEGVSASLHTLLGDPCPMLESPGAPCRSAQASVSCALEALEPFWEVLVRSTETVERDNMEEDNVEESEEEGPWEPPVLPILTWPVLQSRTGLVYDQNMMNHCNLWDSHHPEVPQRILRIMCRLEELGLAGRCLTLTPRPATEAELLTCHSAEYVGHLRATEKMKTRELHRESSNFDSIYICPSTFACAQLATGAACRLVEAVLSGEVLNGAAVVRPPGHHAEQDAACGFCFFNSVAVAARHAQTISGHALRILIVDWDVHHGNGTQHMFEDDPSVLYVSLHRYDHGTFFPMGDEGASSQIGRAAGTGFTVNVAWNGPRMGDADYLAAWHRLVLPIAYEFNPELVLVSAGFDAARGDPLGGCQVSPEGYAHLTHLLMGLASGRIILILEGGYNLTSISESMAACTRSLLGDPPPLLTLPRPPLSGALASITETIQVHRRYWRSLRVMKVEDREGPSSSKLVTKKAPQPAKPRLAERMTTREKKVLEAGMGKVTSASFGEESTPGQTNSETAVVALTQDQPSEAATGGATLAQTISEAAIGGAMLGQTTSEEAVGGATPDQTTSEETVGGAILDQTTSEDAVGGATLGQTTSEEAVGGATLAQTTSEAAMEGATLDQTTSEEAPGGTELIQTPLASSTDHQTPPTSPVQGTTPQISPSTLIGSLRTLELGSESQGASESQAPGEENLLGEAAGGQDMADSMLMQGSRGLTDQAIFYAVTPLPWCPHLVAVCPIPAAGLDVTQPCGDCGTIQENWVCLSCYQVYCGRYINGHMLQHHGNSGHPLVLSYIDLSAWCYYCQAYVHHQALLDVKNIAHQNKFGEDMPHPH
# class III isoenzyme SIRT I, sequence (Q96EB6 whole entry): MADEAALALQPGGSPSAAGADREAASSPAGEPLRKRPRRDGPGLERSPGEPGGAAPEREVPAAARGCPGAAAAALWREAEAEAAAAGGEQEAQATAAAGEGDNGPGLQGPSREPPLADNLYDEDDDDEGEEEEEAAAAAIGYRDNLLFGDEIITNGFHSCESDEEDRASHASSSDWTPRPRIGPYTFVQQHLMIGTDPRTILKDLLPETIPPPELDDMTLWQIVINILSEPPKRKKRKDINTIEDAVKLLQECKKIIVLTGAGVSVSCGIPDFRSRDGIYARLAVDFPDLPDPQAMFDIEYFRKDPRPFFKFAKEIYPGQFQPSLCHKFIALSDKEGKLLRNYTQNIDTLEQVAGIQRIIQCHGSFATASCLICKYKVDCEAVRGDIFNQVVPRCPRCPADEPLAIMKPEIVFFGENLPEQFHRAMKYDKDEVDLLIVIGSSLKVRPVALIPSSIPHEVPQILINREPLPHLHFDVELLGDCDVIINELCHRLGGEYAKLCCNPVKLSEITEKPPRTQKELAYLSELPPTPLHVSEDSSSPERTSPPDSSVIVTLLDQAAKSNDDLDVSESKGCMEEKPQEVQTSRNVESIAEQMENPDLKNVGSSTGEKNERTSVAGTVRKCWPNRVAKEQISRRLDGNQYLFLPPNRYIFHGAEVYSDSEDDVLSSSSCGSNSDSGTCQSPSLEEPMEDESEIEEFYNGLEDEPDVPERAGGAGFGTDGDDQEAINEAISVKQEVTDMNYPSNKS
compound,measurement,setting,value
CC(C)[C@H](C(=O)Nc1ccc(C(=O)NO)cc1)c1ccccc1 [AR-42],IC50,[1],30 nM
CN(C)Cc1c(C(=O)NCCOc2ccc(C(=O)NO)cc2)oc2ccccc12 [Abexinostat],"potency to HDACs 2, 3, 6, and 10",[2],"modest potent to HDACs 2, 3, 6, and 10 and greater"
Nc1ccccc1NC(=O)c1cnccn1 [BG45],IC50,[3],2200 nM
same,IC50,[4],289 nM
same,IC50,[5],2000 nM
same,IC50,[6],> 20000 nM
O=C(/C=C/c1ccc(CN(CCO)CCc2c[nH]c3ccccc23)cc1)NO [Dacinostat],IC50,[1],32 nM
CCN(CC)Cc1ccc2cc(COC(=O)Nc3ccc(C(=O)NO)cc3)ccc2c1 [Givinostat],IC50,[7],7.5 nM
same,IC50,[8],10 nM
same,IC50,[9],16 nM
CN(C)c1ccc(C(=O)NCCCCCCC(=O)NO)cc1 [M344],IC50,[1],100 nM
CCCCc1nc2cc(/C=C/C(=O)NO)ccc2n1CCN(CC)CC [Pracinostat],IC50,[1],40 to 140 nM
same,activity against the class III isoenzyme SIRT I,[10],no
Cn1cc(CNCC2CCN(c3ncc(C(=O)NO)cn3)CC2)c2ccccc21 [Quisinostat],"potency to HDACs 2, 4, 10, and 11",[11],modest potent
same,potency to HDACs 6 and 7,[12],"selectivity against HDACs 3, 5, 8, and 9 and lowest"
O=C(CCCCCCNC(=O)c1cnc(N(c2ccccc2)c2ccccc2)nc1)NO [Rocilinostat],activity against HDAC8,[13],slight activity
same,"activity against HDAC4/5/7/9/11, Sirtuin1, and Sirtuin2",[14],minimal
O=C(CCCCCN1C(=O)c2cccc3cccc(c23)C1=O)NO [Scriptaid],effect on acetylated H4 versus H3,[15],greater effect on acetylated H4 than H3.
Nc1ccccc1NC(=O)c1ccc(-c2cn(CCc3ccsc3)nn2)cc1 [T247],ability of reactive astrocytes to cross present antigen on MHC Class I,[16]; FIG. 3,decrease
same,treated cells H-2 kB-OVA positive DRAs,[16]; about 2.5 μM,about 8%
same,treated cells H-2 kB-OVA positive DRAs,[16]; about 5.0 μM,about 20%
same,nuclear RelA/P65,[17],decreases
same,nuclear RelA/P65,[17]; listed as T24710,decreased
same,IC50,[4],55 nM
same,secretion of CCL5 by reactive astrocytes,[18],significantly decrease
Trichostatin A,IC50,[1],~1.8 nM
